Data as given in patent US5141735A (priority 1990, dated 1992).
Where two headings read alike, the source gives them in different places.

Legend:
[1] = system: HIV-1-infected CEM-cells (strain N1T); experiment: Anti-HIV effect: reduction of immunofluorescence-positive CEM cells (cell-associated viral antigens); assay type: cell-based
Description: (§1) Compounds were tested directly for their anti-HIV effect. The assay protocols for the inhibition of HIV-cytopathic effect and the reduction of cell-associated viral antigens were modified from published procedures (Mitsuya, et al. P.N.A.S, USA 83:1911 (1986), and Hedenskog et al., J. Med. Virol. 19:325 (I986)).
(§2) High titer virus stocks (HIV-1 NIT strain or HIV-2 uc-1 strain) were grown in CD4^+ CR10 cells in RMPI-1640 media (Gibco Laboratories) supplemented with 10% fetal calf serum and 0.1 mg/ml Gentamicin. The collected media were filtered through a 0.8 micron filter and virus isolates were concentrated 100 fold and stored at -80° C.
(§3) CD4^+ CEM cells, propagated in the same medium, were incubated for 60 minutes at 37° C. with diluted stock virus at a multiplicity of infection equal to 1 (MOI=1, approximately 1 pg p24 or 4,000 viral particles per cell). Cells were washed three times with phosphate buffered saline and resuspended in the medium at 2×10^5 cells/ml. Various quantities of the test compound in DMSO, synthesized as described above were added. Four days after infection, the number of live cells were counted by trypan blue exclusion (Mitsuya, et al. Proc. Natl. Acad. Sci. 83:1911 (1986)). At the same time, aliquots of cells were fixed with acetone and stained with antibodies from AIDS patients, followed by a second staining with fluorescein-conjugated goat anti-human IgG (Cappel). Cells stained with the fluorescent antibody were counted using a fluorescence microscope and the results were expressed as percentage of the total number of cells counted (Hedenskog et al., J. Med. Virol 19:325 (1986)).
*ID50 (μM) is the concentration of test compound that reduces the
number of immunofluorescence positive cells by 50%.

HIV-TAT [2] = experiment: Anti-HIV-TAT transfection assay (SeAP under HIV-LTR vs RSV-LTR in COS cells); assay type: cell-based; conditions: 1-50 μM; HIV-LTR/SeAP relative to RSV-LTR/SeAP; added 24 hours post transfection; average of at least three tests
Description: The compounds of the present invention were also tested for anti-HIV-TAT activity in an anti-TAT assay described in co-pending patent application U.S. Ser. No. 07/428,555, filed on Oct. 30, 1989, and hereby incorporated by reference. This assay comprises the following steps:
(a) putting both the expression of the Secreted Alkaline Phosphatase (SeAP) gene and the viral transactivator TAT gene under the control of the HIV promoter LTR responsive to the action of the HIV transactivator TAT;
(b) transfecting cultured mammalian cells with plasmids which contain the gene constructs of (a) above and cause cellular production of the transactivating factor TAT and SeAP;
(c) adding the agent to be tested, here compounds of formula I; and
(d) determining the amount of SeAP produced by measuring SeAP enzymatic activity, whereby inhibition of SeAP production correlates with the anti-TAT inhibition activity.
In this assay, the inhibition of SeAP positively correlates with anti-TAT activity. The greater the ability of an agent to inhibit SeAP, the greater is its anti-TAT activity.
Specifically, with respect to the results reported below, the anti-HIV-TAT assay was run as follows: […]
determined by measuring the amount of alkaline phosphatase in […]
calculated according to the formula: […]

HIV-1-infected CEM-cells = experiment: Inhibition of HIV-cytopathic effect: live cell count by trypan blue exclusion; assay type: cell-based
Description: as §1, §2, §3

viral p24 antigen = experiment: Viral p24 antigen in culture media measured by ELISA; assay type: cell-based, HIV; conditions: acutely infected CEM cells, FIG. 2
Description: As an additional measure of anti-HIV activity, the amount of p24 antigen in the culture media was measured by ELISA (Abbott) according to the procedure described by the manufacturer. This measurement is an indication of HIV virus replication.

viral RNA = experiment: Cell-associated viral RNA by RNA-RNA hybridization/reversible target capture; assay type: cell-based, HIV; conditions: acutely infected CEM cells, FIG. 2
Description: In addition, the viral RNA in infected cells was quantified with an RNA-RNA hybridization/reversible target capture procedure [Gillespie et al. Molecular and Cellular Probes, 2:73 (1989)]. Reagents were purchased from GeneTrack System (MA, USA) and assays were carried out according to the procedure described by the manufacturers. 2×10^5 live cells, determined by trypan blue exclusion, were used in each assay.

HIV-TAT [3] = experiment: Anti-HIV-TAT activity in CHO-derived cell lines constitutively expressing SeAP under HIV-LTR; assay type: cell-based; conditions: FIG. 4
Description: (§4) Compounds of formula I were also tested for anti-HIV-TAT activity with cell lines that constitutively express the SeAP gene under the control of the HIV-LTR. Cell lines 193c, 191F and 199F were derived from CHO cells (cell line of Chinese hamster ovary origin). Each line is of clonal origin and has the HIV-LTR/SeAP and the HIV-LTR/TAT sequences integrated in the cellular chromosome. One day after cells were plated (approximately 30% confluency), a compound of formula I in DMSO (0.05% final concentration) was added to the culture media at desired concentrations. The cells were washed and Compound A was replenished one day later. SeAP activity was assayed two days after the second addition of test compound. The cytotoxic effect of the compound was measured with a MTT assay, an art-recognized measurement of cytotoxicity. See Denigot et al., J. Immunol. Methods 89:271 (1986). This assay also confirmed the specific anti-TAT activity of applicants' compounds.

[4] = system: Cell lines 193c, 191F and 199F; experiment: Cytotoxicity by MTT assay in CHO-derived cell lines 193c, 191F and 199F; assay type: cell-based, Chinese hamster; conditions: FIG. 4
Description: The Y-axis is (1) the percent inhibition in TAT transactivation measured according to SeAP activity in culture media (discussed infra), and (2) a measurement of cytotoxicity based on an MTT assay. The MTT assay is a known tetrazolium-based assay which measures the viability of cells. The X-axis is the concentration of compound. The solid circles, diamonds and squares represent the three different cell lines identified at the bottom of the Figure.
as §4, with “This assay also confirmed the specific anti-TAT activity of applicants' compounds.” left out

HIV = conditions: body weight; cited from earlier work
viremia = conditions: cited from earlier work
[5] = Human immunodeficiency virus 1, CCRF-CEM, 96 h, concentration that reduces the number of immunofluorescence positive cells by 50%, Table I, read-out: Anti-HIV ID50

SMILES: NC1=Nc2ccc(Cl)cc2C(c2ccc[nH]2)=NC1 [NH2, 7-chloro-5-(1H-pyrrol-2-yl)-3H-1,4-benzodiazepin-2-amine]
- IC50 [1, 5]: 1000 nM
- Anti-HIV-TAT Activity (% Inhibition) (HIV-TAT [2]): > 60%

SMILES: CNC1=Nc2ccc(Cl)cc2C(c2ccc[nH]2)=NC1 [Compound A, 7-chloro-N-methyl-5-(1H-pyrrol-2-yl)-3H-1,4-benzodiazepin-2-amine]
- IC50 ([1]; Human immunodeficiency virus 1, CCRF-CEM, 96 h, FIG. 1, HIV-1-infected CEM-cells (strain N1T), read-out: ID50 (the source's name)): 500 nM
- IC90 ([1]; Human immunodeficiency virus 1, CCRF-CEM, 96 h, FIG. 1, HIV-1-infected CEM-cells (strain N1T), read-out: ID90 (the source's name)): 1000 nM
- IC50 [1, 5]: 500 to 1000 nM
- percentage of cells that are immunofluorescence-positive following staining with HIV antibodies ([1]; increasing amounts of compound, FIG. 1): decline in the percentage of cells that are immunofluorescence-positive
- survival rate for the HIV-infected cells (HIV-1-infected CEM-cells; 5 μM, FIG. 1, HIV-1-infected CEM-cells): very close to that of uninfected cells
- survival of HIV-infected cells with increasing concentrations (HIV-1-infected CEM-cells; FIG. 1): greater survival of HIV-infected cells
- cell survival in comparison to AZT or ddC (HIV-1-infected CEM-cells; acutely infected CEM cells, FIG. 2): at least similar, and at several compound concentrations, better, cell survival than AZT or ddC
- amount of viral p24 antigen (viral p24 antigen): dramatically reduces
- amount of cell-associated viral RNA (viral RNA): dramatically reduces
- Anti-HIV-TAT Activity (% Inhibition) (HIV-TAT [2]): > 60%
- inhibition of SeAP expression under the control of the HIV-LTR promoter (HIV-TAT [3]): significantly inhibits SeAP expression
- cytotoxic effect on the cells [4]: no cytotoxic effect on the cells

SMILES: Nc1ccn([C@H]2CC[C@@H](CO)O2)c(=O)n1 [ddC]
- virustatic dose range in most patients (HIV): 5 to 250 µg/kg

SMILES: Cc1cn([C@H]2C[C@H](N=[N+]=[N-])[C@@H](CO)O2)c(=O)[nH]c1=O [AZT]
- elimination of viremia in patients (viremia): does not eliminate viremia in patients
- drug resistance (viremia; patients): eventually the appearance of drug-resistant mutant viruses is evidenced
